Three molecules from EPA's ToxValDB 9.5 (doi:10.2903/j.efsa.2009.191r) can be followed below.

The subject of one series is Daphnia magna. The following applies: acute; duration: 48 hours; mortality.
The test system of a further series is Canidae. The note with it: chronic; duration: 1 years; oral; Dog Other; clinical signs.
The subject of another series is Colinus virginianus. The note with it: acute, oral, mortality; for LC50: diet.
The subject of a further series is Apis mellifera. The following applies: acute, mortality.
Another series has as its system Rattus norvegicus. The note with it: acute; oral; mortality.
In the next series the test system is Oncorhynchus mykiss. The following applies: acute; duration: 96 hours; mortality.
For the next series, the system named is Anas platyrhynchos. The note with it: short-term; oral; feed; mortality.

A word on the NOAEL: it is the highest dose or exposure tested at which no adverse effect was seen. Regarding `O=[N+]([O-])c1ccc([O-])cc1.[Na+]` [Sodium 4-nitrophenolate], the LC50 in the series on Daphnia magna is 27.7 µg/mL; with Colinus virginianus, over 1410 mg/kg-day; in the series with Oncorhynchus mykiss, 25 µg/mL. Further, the NOAEL in the series on Canidae turned out to be 0.3 mg/kg-day. Besides, the LD50 in the series with Colinus virginianus is over 1670 mg/kg-day; with Apis mellifera (dermal) it was 111 µg/piece; with Apis mellifera (oral, unspecified), over 61.2 µg/piece; in the series on Rattus norvegicus, 346 mg/kg-day.
On to `O=[N+]([O-])c1ccccc1[O-].[Na+]` [Sodium 2-nitrophenolate], for which the LC50 in the series on Anas platyrhynchos was over 2540 mg/kg-day; in the series on Colinus virginianus, over 2700 mg/kg-day. Besides, the LD50 in the series on Colinus virginianus is 1050 mg/kg-day; in the series on Apis mellifera (dermal), over 100 µg/piece; in the series with Apis mellifera (oral, unspecified) it was 124 µg/piece; in the series with Rattus norvegicus, 960 mg/kg-day.
In turn, `COc1ccc([N+](=O)[O-])cc1[O-].[Na+]` [Sodium 2-methoxy-5-nitrophenolate] came in with an NOAEL with Canidae of 0.3 mg/kg-day. In the series on Colinus virginianus, this molecule had an LC50 of 1830 mg/kg-day. The LD50 in the series with Colinus virginianus was 2070 mg/kg-day; with Apis mellifera (dermal) it was over 100 µg/piece; with Apis mellifera (oral, unspecified), 132 µg/piece; in the series on Rattus norvegicus, 716 mg/kg-day.
